From ChEMBL document CHEMBL3885881, “DrugMatrix”

Species: Rattus norvegicus
Type: toxicity, organism-based, Sprague-Dawley
Details: in vivo, po, route oral GAVAGE, […]; for ABSOLUTE EOSINOPHIL / ABSOLUTE LYMPHOCYTE / ABSOLUTE MONOCYTE / ABSOLUTE SEGMENTED NEUTROPHIL / BASOPHIL / EOSINOPHIL / ERYTHROCYTE COUNT / HEMATOCRIT / HEMOGLOBIN / LEUKOCYTE COUNT / LYMPHOCYTE / MEAN CORPUSCULAR HEMOGLOBIN / MEAN CORPUSCULAR HEMOGLOBIN CONCENTRATION / MEAN CORPUSCULAR VOLUME / MONOCYTE / NEUTROPHIL / NUCLEATED RED BLOOD CELLS / PLATELET COUNT: tissue Blood; for ALANINE AMINOTRANSFERASE / ALBUMIN / ALKALINE PHOSPHATASE / ASPARTATE AMINOTRANSFERASE / BLOOD UREA NITROGEN / CARBON DIOXIDE / CHLORIDE / CHOLESTEROL / CREATINE PHOSPHOKINASE / CREATININE / GLUCOSE / LACTATE DEHYDROGENASE / LIPASE / PHOSPHORUS / POTASSIUM / SODIUM / TOTAL BILIRUBIN / TOTAL PROTEIN / URIC ACID: tissue Plasma
[1] = 400 mg/kg, 24 h, dose level Low, time 1 day
[2] = 1175 mg/kg, 6 h, dose level High, time 0.25 day
[3] = 1175 mg/kg, 24 h, dose level High, time 1 day

Description: DrugMatrix - Regimen: Single

With `ClC(Cl)(Cl)Cl` [CARBON TETRACHLORIDE] as the molecule, how does the “ABSOLUTE EOSINOPHIL” value [1] read?
The value was 0 CELLS/uL.

And the “ABSOLUTE LYMPHOCYTE” value [1]?
The value was 6780.67 CELLS/uL.

And the “ABSOLUTE MONOCYTE” value [1]?
The value was 96.83 CELLS/uL.

What about the “ABSOLUTE SEGMENTED NEUTROPHIL” value [1] of the same molecule?
Its value is 789.17 CELLS/uL.

And the BASOPHIL [1]?
The BASOPHIL was 0%.

And the EOSINOPHIL [1]?
The EOSINOPHIL was 0%.

What about the “ERYTHROCYTE COUNT” value [1] of the same molecule?
Its value is 5.7 x10E6/uL.

What about the HEMATOCRIT [1] of the same molecule?
Its HEMATOCRIT is 35.63%.

And the HEMOGLOBIN [1]?
The HEMOGLOBIN was 14.05 G/DL.

What about the “LEUKOCYTE COUNT” value [1] of the same molecule?
The value was 7.67 x10E3/uL.

What about the LYMPHOCYTE [1] of the same molecule?
The LYMPHOCYTE was 88%.

And the “MEAN CORPUSCULAR HEMOGLOBIN” value [1]?
The value was 24.7 pg.

And the “MEAN CORPUSCULAR HEMOGLOBIN CONCENTRATION” value [1]?
The value was 39.43 G/DL.

What about the “MEAN CORPUSCULAR VOLUME” value [1] of the same molecule?
Its value is 62.67 fL.

And the MONOCYTE [1]?
Its MONOCYTE is 1.17%.

What about the NEUTROPHIL [1] of the same molecule?
The NEUTROPHIL was 10.83%.

And the “NUCLEATED RED BLOOD CELLS” value [1]?
Its value is 0 /100WBC.

And the “PLATELET COUNT” value [1]?
The value was 966 x10E3/uL.

What about the “ALANINE AMINOTRANSFERASE” value [1] of the same molecule?
Its value is 129.17 u/L.

What about the ALBUMIN [1] of the same molecule?
Its ALBUMIN is 4.17 G/DL.

What about the “ALKALINE PHOSPHATASE” value [1] of the same molecule?
The value was 338.17 u/L.

And the “ASPARTATE AMINOTRANSFERASE” value [1]?
Its value is 420.5 u/L.

And the “BLOOD UREA NITROGEN” value [1]?
Its value is 16.33 mg/dL.

What about the “CARBON DIOXIDE” value [1] of the same molecule?
The value was 34.33 mmol/L.

And the CHLORIDE [1]?
The CHLORIDE was 98.5 MEQ/L.

And the CHOLESTEROL [1]?
Its CHOLESTEROL is 58 mg/dL.

What about the “CREATINE PHOSPHOKINASE” value [1] of the same molecule?
The value was 252 u/L.

And the CREATININE [1]?
The CREATININE was 0.29 mg/dL.

And the GLUCOSE [1]?
The GLUCOSE was 127.33 mg/dL.

What about the “LACTATE DEHYDROGENASE” value [1] of the same molecule?
Its value is 240.17 u/L.

And the LIPASE [1]?
Its LIPASE is 9.83 u/L.

And the PHOSPHORUS [1]?
The PHOSPHORUS was 9.37 mg/dL.

And the POTASSIUM [1]?
Its POTASSIUM is 5.7 MEQ/L.

What about the SODIUM [1] of the same molecule?
The SODIUM was 144.08 MEQ/L.

And the “TOTAL BILIRUBIN” value [1]?
Its value is 0.22 mg/dL.

And the “TOTAL PROTEIN” value [1]?
The value was 6.3 G/DL.

And the “URIC ACID” value [1]?
Its value is 0.53 mg/dL.

What about the “ABSOLUTE EOSINOPHIL” value [2] of the same molecule?
Its value is 83.17 CELLS/uL.

What about the “ABSOLUTE LYMPHOCYTE” value [2] of the same molecule?
The value was 9204 CELLS/uL.

What about the “ABSOLUTE MONOCYTE” value [2] of the same molecule?
The value was 323.67 CELLS/uL.

What about the “ABSOLUTE SEGMENTED NEUTROPHIL” value [2] of the same molecule?
Its value is 4922.5 CELLS/uL.

What about the BASOPHIL [2] of the same molecule?
The BASOPHIL was 0%.

What about the EOSINOPHIL [2] of the same molecule?
The EOSINOPHIL was 0.5%.

And the “ERYTHROCYTE COUNT” value [2]?
The value was 5.84 x10E6/uL.

What about the HEMATOCRIT [2] of the same molecule?
Its HEMATOCRIT is 39.2%.

And the HEMOGLOBIN [2]?
Its HEMOGLOBIN is 14.45 G/DL.

What about the “LEUKOCYTE COUNT” value [2] of the same molecule?
The value was 14.53 x10E3/uL.

What about the LYMPHOCYTE [2] of the same molecule?
The LYMPHOCYTE was 63.5%.

What about the “MEAN CORPUSCULAR HEMOGLOBIN” value [2] of the same molecule?
The value was 24.75 pg.

What about the “MEAN CORPUSCULAR HEMOGLOBIN CONCENTRATION” value [2] of the same molecule?
Its value is 36.87 G/DL.

And the “MEAN CORPUSCULAR VOLUME” value [2]?
The value was 67.08 fL.

What about the MONOCYTE [2] of the same molecule?
The MONOCYTE was 2%.

And the NEUTROPHIL [2]?
Its NEUTROPHIL is 34%.

And the “NUCLEATED RED BLOOD CELLS” value [2]?
The value was 0.17 /100WBC.

And the “PLATELET COUNT” value [2]?
The value was 1289.67 x10E3/uL.

What about the “ALANINE AMINOTRANSFERASE” value [2] of the same molecule?
The value was 157 u/L.

And the ALBUMIN [2]?
The ALBUMIN was 4.5 G/DL.

What about the “ALKALINE PHOSPHATASE” value [2] of the same molecule?
The value was 379.83 u/L.

And the “ASPARTATE AMINOTRANSFERASE” value [2]?
The value was 369 u/L.

And the “BLOOD UREA NITROGEN” value [2]?
Its value is 14.83 mg/dL.

And the “CARBON DIOXIDE” value [2]?
The value was 21 mmol/L.

And the CHLORIDE [2]?
The CHLORIDE was 97.83 MEQ/L.

What about the CHOLESTEROL [2] of the same molecule?
The CHOLESTEROL was 59.17 mg/dL.

What about the “CREATINE PHOSPHOKINASE” value [2] of the same molecule?
The value was 433.5 u/L.

What about the CREATININE [2] of the same molecule?
Its CREATININE is 0.14 mg/dL.

And the GLUCOSE [2]?
The GLUCOSE was 128.33 mg/dL.

And the “LACTATE DEHYDROGENASE” value [2]?
Its value is 1251.5 u/L.

What about the LIPASE [2] of the same molecule?
The LIPASE was 9.83 u/L.

What about the PHOSPHORUS [2] of the same molecule?
The PHOSPHORUS was 13.47 mg/dL.

What about the POTASSIUM [2] of the same molecule?
The POTASSIUM was 5.85 MEQ/L.

What about the SODIUM [2] of the same molecule?
Its SODIUM is 140.9 MEQ/L.

And the “TOTAL BILIRUBIN” value [2]?
The value was 0.32 mg/dL.

What about the “TOTAL PROTEIN” value [2] of the same molecule?
Its value is 5.88 G/DL.

And the “URIC ACID” value [2]?
Its value is 2.1 mg/dL.

What about the “ABSOLUTE EOSINOPHIL” value [3] of the same molecule?
The value was 28.67 CELLS/uL.

What about the “ABSOLUTE LYMPHOCYTE” value [3] of the same molecule?
The value was 8687.33 CELLS/uL.

And the “ABSOLUTE MONOCYTE” value [3]?
Its value is 78.33 CELLS/uL.

What about the “ABSOLUTE SEGMENTED NEUTROPHIL” value [3] of the same molecule?
The value was 1872.33 CELLS/uL.

What about the BASOPHIL [3] of the same molecule?
Its BASOPHIL is 0%.

What about the EOSINOPHIL [3] of the same molecule?
The EOSINOPHIL was 0.33%.

And the “ERYTHROCYTE COUNT” value [3]?
Its value is 5.91 x10E6/uL.

And the HEMATOCRIT [3]?
Its HEMATOCRIT is 37.1%.

And the HEMOGLOBIN [3]?
Its HEMOGLOBIN is 14.7 G/DL.

What about the “LEUKOCYTE COUNT” value [3] of the same molecule?
The value was 10.67 x10E3/uL.

And the LYMPHOCYTE [3]?
Its LYMPHOCYTE is 81%.

And the “MEAN CORPUSCULAR HEMOGLOBIN” value [3]?
Its value is 24.93 pg.

And the “MEAN CORPUSCULAR HEMOGLOBIN CONCENTRATION” value [3]?
Its value is 39.62 G/DL.

And the “MEAN CORPUSCULAR VOLUME” value [3]?
The value was 62.85 fL.

What about the MONOCYTE [3] of the same molecule?
The MONOCYTE was 0.83%.

What about the NEUTROPHIL [3] of the same molecule?
The NEUTROPHIL was 17.83%.

And the “NUCLEATED RED BLOOD CELLS” value [3]?
The value was 0 /100WBC.

What about the “PLATELET COUNT” value [3] of the same molecule?
The value was 912.17 x10E3/uL.

And the “ALANINE AMINOTRANSFERASE” value [3]?
The value was 544.67 u/L.

What about the ALBUMIN [3] of the same molecule?
The ALBUMIN was 4.05 G/DL.

What about the “ALKALINE PHOSPHATASE” value [3] of the same molecule?
The value was 371.33 u/L.

What about the “ASPARTATE AMINOTRANSFERASE” value [3] of the same molecule?
The value was 3091.33 u/L.

And the “BLOOD UREA NITROGEN” value [3]?
The value was 15.5 mg/dL.

What about the “CARBON DIOXIDE” value [3] of the same molecule?
The value was 33.83 mmol/L.

And the CHLORIDE [3]?
The CHLORIDE was 98.33 MEQ/L.

And the CHOLESTEROL [3]?
The CHOLESTEROL was 55 mg/dL.

What about the “CREATINE PHOSPHOKINASE” value [3] of the same molecule?
Its value is 312.83 u/L.

What about the CREATININE [3] of the same molecule?
Its CREATININE is 0.32 mg/dL.

And the GLUCOSE [3]?
The GLUCOSE was 129.83 mg/dL.

What about the “LACTATE DEHYDROGENASE” value [3] of the same molecule?
The value was 4392.83 u/L.

And the LIPASE [3]?
Its LIPASE is 10 u/L.

What about the PHOSPHORUS [3] of the same molecule?
Its PHOSPHORUS is 9.72 mg/dL.

What about the POTASSIUM [3] of the same molecule?
The POTASSIUM was 5.12 MEQ/L.

What about the SODIUM [3] of the same molecule?
The SODIUM was 144.23 MEQ/L.

And the “TOTAL BILIRUBIN” value [3]?
The value was 0.27 mg/dL.

What about the “TOTAL PROTEIN” value [3] of the same molecule?
The value was 6.05 G/DL.

What about the “URIC ACID” value [3] of the same molecule?
The value was 0.52 mg/dL.
